According to patent US20240390340A1 (INCYTE CORPORATION, priority 2023, published 2024):
pIC50: −log10 of the molar value.

Legend:
KRAS = KRAS inhibition, assay not specified (at least one assay described herein); conditions: Peak 1 versus Peak 2 of prep. LCMS; assay not stated
KRAS G12D = KRAS G12D (Homo sapiens, UniProt P01116, G12D); assay: GDP-GTP exchange assay (bodipy-GDP/GppNHp, SOS1), KRAS G12D; assay type: biochemical; conditions: Table H, column G12D; for compounds isolated as several atropisomers/diastereoisomers the value for the most potent isomer is quoted; read-out: KRAS G12D exchange assay IC50
Sequence of KRAS G12D (P01116 1-188 isoform P01116-2 G12D): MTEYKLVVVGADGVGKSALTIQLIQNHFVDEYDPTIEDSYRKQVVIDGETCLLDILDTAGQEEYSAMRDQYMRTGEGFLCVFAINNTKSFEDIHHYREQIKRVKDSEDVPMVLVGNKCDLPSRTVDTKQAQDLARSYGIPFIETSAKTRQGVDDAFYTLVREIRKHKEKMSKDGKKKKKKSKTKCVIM

KRAS G12V = KRAS G12V (Homo sapiens, UniProt P01116, G12V); assay: GDP-GTP exchange assay (bodipy-GDP/GppNHp, SOS1), KRAS G12V; assay type: biochemical; conditions: Table H, column G12V; for compounds isolated as several atropisomers/diastereoisomers the value for the most potent isomer is quoted; read-out: KRAS G12V exchange assay IC50
Sequence of KRAS G12V (P01116 1-188 isoform P01116-2 G12V): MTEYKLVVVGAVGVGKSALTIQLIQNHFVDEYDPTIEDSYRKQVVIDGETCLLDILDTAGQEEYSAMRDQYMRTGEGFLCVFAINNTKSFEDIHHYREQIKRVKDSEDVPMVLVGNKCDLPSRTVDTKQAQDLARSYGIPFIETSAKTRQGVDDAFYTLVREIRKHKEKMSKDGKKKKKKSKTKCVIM

Caco-2 cells = assay: Caco2 assay (Papp A-B); assay type: in vitro ADME; conditions: test compound 50 μM, 120 min, 37° C.
Method in brief: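 Caco-2 monolayers grown 22–25 days on Transwells (TEER 300 Ω·cm^2) were dosed apically with 50 μM compound in HBSS; basolateral receiver held HBSS with 4% BSA. Incubation 120 min at 37° C, 5% CO2; donor and receiver samples quantified by LCMS and Papp A-B calculated from receiver-side cumulative flux slope.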

SMILES | potency of the separated diastereoisomer (atropisomer) in words (KRAS) | pIC50 (KRAS G12D) | pIC50 (KRAS G12V) | Caco-2 (Caco-2 cells)
C[C@@H](O)c1nc2c(F)c(-c3cccc(Cl)c3Cl)c(CCC#N)cc2c2c1cc([C@H]1[C@@H](F)[C@H](Oc3ccccn3)CN1C(=O)C1CC1)n2[C@H]1[C@H]2CN[C@@H]1C2 (single isomer, unassigned) | potent |  |  | 
COc1ncccc1O[C@H]1C[C@H](c2cc3c(C)nc4c(F)c(-c5cccc(Cl)c5Cl)c(CCC#N)cc4c3n2[C@H]2[C@H]3CN[C@@H]2C3)N(C(=O)C2CC2)C1 (single isomer, unassigned) [Example 1, Diastereomer 1 (Peak 1)] | potent |  |  | 
CC(O)c1nc2c(F)c(-c3cccc(Cl)c3Cl)c(CCC#N)cc2c2c1cc([C@H]1C[C@H](OCc3ccc(F)cc3C#N)CN1C(=O)C1(C)CC1)n2[C@H]1[C@H]2CN[C@@H]1C2 (single isomer, unassigned) [Example 35, Diastereomer 1 (Peak 1)] | potent |  |  | 
C[C@@H](O)c1nc2c(F)c(-c3cccc(Cl)c3Cl)c(CCC#N)cc2c2c1cc([C@H]1[C@H](O)[C@H](Oc3ccccn3)CN1C(=O)C1CC1)n2[C@H]1[C@H]2CN[C@@H]1C2 (single isomer, unassigned) | potent |  |  | 
COc1ccc(O[C@H]2C[C@H](c3cc4c([C@@H](C)O)nc5c(F)c(-c6cccc(Cl)c6Cl)c(CCC#N)cc5c4n3[C@H]3[C@H]4CN[C@@H]3C4)N(C(=O)C3CC3)C2)cn1 (single isomer, unassigned) [Example 76, Diastereomer 1 (Peak 1)] | potent |  |  | 
COc1cc(O[C@H]2C[C@H](c3cc4c(C)nc5c(F)c(-c6cccc(Cl)c6Cl)c(CCC#N)cc5c4n3[C@H]3[C@H]4CN[C@@H]3C4)N(C(=O)C3CC3)C2)c(F)cn1 [Example 43, 3-(1-((1R,4R,5S)-2-Azabicyclo[2.1.1]hexan-5-yl)-2-((2R,4S)-1-(cyclopropanecarbonyl)-4-((5-fluoro-2-methoxypyridin-4-yl)oxy)pyrrolidin-2-yl)-7-(2,3-dichlorophenyl)-6-fluoro-4-methyl-1H-pyrrolo[3,2-c]quinolin-8-yl)propanenitrile] |  | ≥ 7.00 | ≥ 7.00 | + (a Caco-2 value of ≤0.5)
Cc1nc2c(F)c(-c3cccc(Cl)c3Cl)c(CCC#N)cc2c2c1cc([C@H]1C[C@H](OCc3ccccc3C(F)F)CN1C(=O)C1CC1)n2[C@H]1[C@H]2CN[C@@H]1C2 [Example 18] |  | ≥ 7.00 | ≥ 7.00 | + (a Caco-2 value of ≤0.5)
Cc1nc2c(F)c(-c3cccc(Cl)c3Cl)c(CCC#N)cc2c2c1cc([C@H]1C[C@H](Oc3cccc(C#N)c3)CN1C(=O)C1CC1)n2[C@H]1[C@H]2CN[C@@H]1C2 [Example 45, 3-(((3S,5R)-5-(1-((1R,4R,5S)-2-Azabicyclo[2.1.1]hexan-5-yl)-8-(2-cyanoethyl)-7-(2,3-dichlorophenyl)-6-fluoro-4-methyl-1H-pyrrolo[3,2-c]quinolin-2-yl)-1-(cyclopropanecarbonyl)pyrrolidin-3-yl)oxy)benzonitrile] |  | ≥ 7.00 | ≥ 7.00 | + (a Caco-2 value of ≤0.5)
COc1cc(O[C@H]2C[C@H](c3cc4c([C@@H](C)O)nc5c(F)c(-c6cccc(Cl)c6Cl)c(CCC#N)cc5c4n3[C@H]3[C@H]4CN[C@@H]3C4)N(C(=O)C3(C)CC3)[C@@H]2C)c(F)cn1 [Example 52, 3-(1-((1R,4R,5S)-2-Azabicyclo[2.1.1]hexan-5-yl)-7-(2,3-dichlorophenyl)-6-fluoro-2-((2R,4S,5R)-4-((5-fluoro-2-methoxypyridin-4-yl)oxy)-5-methyl-1-(1-methylcyclopropane-1-carbonyl)pyrrolidin-2-yl)-4-((R)-1-hydroxyethyl)-1H-pyrrolo[3,2-c]quinolin-8-yl)propanenitrile] |  | ≥ 7.00 | ≥ 7.00 | + (a Caco-2 value of ≤0.5)
Cc1nc2c(F)c(-c3cccc(Cl)c3Cl)c(CCC#N)cc2c2c1cc([C@H]1C[C@H](OCc3cc(C(F)(F)F)sn3)CN1C(=O)C1CC1)n2[C@H]1[C@H]2CN[C@@H]1C2 [Example 11] |  | ≥ 7.00 | ≥ 7.00 | + (a Caco-2 value of ≤0.5)
Cc1nonc1CO[C@H]1C[C@H](c2cc3c(C)nc4c(F)c(-c5cccc(Cl)c5Cl)c(CCC#N)cc4c3n2[C@H]2[C@H]3CN[C@@H]2C3)N(C(=O)C2CC2)C1 [Example 33] |  | ≥ 7.00 | ≥ 7.00 | + (a Caco-2 value of ≤0.5)
Cc1nc2c(F)c(-c3cccc(Cl)c3Cl)c(CCC#N)cc2c2c1cc([C@H]1C[C@H](Oc3cnn(C)c3C#N)CN1C(=O)C1CC1)n2[C@H]1[C@H]2CN[C@@H]1C2 [Example 46, 4-(((3S,5R)-5-(1-((1R,4R,5S)-2-Azabicyclo[2.1.1]hexan-5-yl)-8-(2-cyanoethyl)-7-(2,3-dichlorophenyl)-6-fluoro-4-methyl-1H-pyrrolo[3,2-c]quinolin-2-yl)-1-(cyclopropanecarbonyl)pyrrolidin-3-yl)oxy)-1-methyl-1H-pyrazole-5-carbonitrile] |  | ≥ 7.00 | ≥ 7.00 | + (a Caco-2 value of ≤0.5)
Cc1nc2c(F)c(-c3cccc(Cl)c3Cl)c(CCC#N)cc2c2c1cc([C@H]1C[C@H](n3nnc(N4CCCC4)n3)CN1C(=O)C1CC1)n2[C@H]1[C@H]2CN[C@@H]1C2 [Example 75, 3-(1-((1R,4R,5S)-2-Azabicyclo[2.1.1]hexan-5-yl)-2-((2R,4S)-1-(cyclopropanecarbonyl)-4-(5-(pyrrolidin-1-yl)-2H-tetrazol-2-yl)pyrrolidin-2-yl)-7-(2,3-dichlorophenyl)-6-fluoro-4-methyl-1H-pyrrolo[3,2-c]quinolin-8-yl)propanenitrile] |  | ≥ 7.00 | ≥ 7.00 | + (a Caco-2 value of ≤0.5)
COc1cccc(F)c1CO[C@H]1C[C@H](c2cc3c(C)nc4c(F)c(-c5cccc(Cl)c5Cl)c(CCC#N)cc4c3n2[C@H]2[C@H]3CN[C@@H]2C3)N(C(=O)C2CC2)C1 [Example 16] |  | ≥ 7.00 | ≥ 7.00 | ++ (a Caco-2 value of >0.5 but ≤1)
Cc1nc2c(F)c(-c3cccc(Cl)c3Cl)c(CCC#N)cc2c2c1cc([C@H]1C[C@H](Oc3cccnc3F)CN1C(=O)C1CC1)n2[C@H]1[C@H]2CN[C@@H]1C2 [Example 39, 3-(1-((1R,4R,5S)-2-Azabicyclo[2.1.1]hexan-5-yl)-2-((2R,4S)-1-(cyclopropanecarbonyl)-4-((2-fluoropyridin-3-yl)oxy)pyrrolidin-2-yl)-7-(2,3-dichlorophenyl)-6-fluoro-4-methyl-1H-pyrrolo[3,2-c]quinolin-8-yl)propanenitrile] |  | ≥ 7.00 | ≥ 7.00 | ++ (a Caco-2 value of >0.5 but ≤1)
Cc1nc2c(F)c(-c3cccc(Cl)c3Cl)c(CCC#N)cc2c2c1cc([C@H]1C[C@H](OC3(C)CCC3)CN1C(=O)C1CC1)n2[C@H]1[C@H]2CN[C@@H]1C2 [Example 78, 3-(1-((1R,4R,5S)-2-Azabicyclo[2.1.1]hexan-5-yl)-2-((2R,4S)-1-(cyclopropanecarbonyl)-4-(1-methylcyclobutoxy)pyrrolidin-2-yl)-7-(2,3-dichlorophenyl)-6-fluoro-4-methyl-1H-pyrrolo[3,2-c]quinolin-8-yl)propanenitrile] |  | ≥ 7.00 | ≥ 7.00 | +++ (a Caco-2 value of >1)
